Measured values taken from US4331670A (priority 1979, dated 1982).
In brackets after ≈: the same amount, converted by molar mass.

Tests used:
Phytophthora infestans = type: cell-based; conditions: PDA medium; fungus A: Phytophthora infestans
Plutella xylostella = test: Test 11: mortality of larvae of Plutella xylostella on treated cabbage leaf; type: in vivo; conditions: foliar, 192 h, leaf dipped, emulsifiable concentrate Composition No. 3, eight days, read-out: Percent mortality
Procedure, shortened: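 Cabbage leaves dipped ~10 s in an aqueous dispersion of the emulsifiable concentrate at 800 ppm, then air-dried and placed on wet filter paper. 2nd–3rd instar larvae added, with dishes held at 28 °C under light. Percent mortality scored 8 days after infestation.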

Diaporthe citri = test: Test 5: minimum growth inhibition concentration on PDA medium; type: cell-based; conditions: fungus B: Diaporthe citri
Experimental: (§1) A mixture of 9 ml. of a potato-glucose-agar medium (PDA medium) and 1 ml. of each active ingredient was poured into each Petri-dish to be solidified. […] The following fungi were used.

Alternaria solani = test: as above; type: cell-based; conditions: fungus C: Alternaria solani
Experimental: as §1

Venturia inaequalie = test: as above; type: cell-based; conditions: fungus D: Venturia inaequalie
Experimental: as §1

[1] = test system: Collectotrichum lagenarium; test: Test 3: protective value on cucumber inoculated with Collectotrichum lagenarium; type: in vivo, Collectotrichum lagenarium (cucumber plant, Suyo); conditions: 500 ppm, 10 ml sprayed; lesions six days after inoculation
Experimental: In each unglazed pot having a diameter of 9 cm, cucumber plant (Suyo) was cultured. At one leaf stage, 10 ml. of each solution of each active ingredient having a concentration of 500 ppm was sprayed by a spray gun. After maintaining the pot in a green-house at 24° to 25° C. for one day, each spore suspension of Collectotrichum lagenarium was sprayed. Six days after the inoculation, number of lesions on the first leaf of seedling was observed. The protective value was calculated as Test 1.

Pyricularia orzae = test: whole plant or invertebrate; type: in vivo, Pyricularia orzae (rice plant, Chukyo Asahi); conditions: in Oryza sativa, 120 h, read-out: Protective value
Sphaerotheca fuliginea = test: whole plant or invertebrate; type: in vivo, Sphaerotheca fuliginea (cucumber plant, Suyo); conditions: Podosphaera fuliginea, in Cucumis sativus, 240 h; read-out: Protective value
Plasmopara viticola = test: whole plant or invertebrate; type: in vivo, Plasmopara viticola (cucumber plant, Suyo); conditions: in Cucumis sativus, 144 h, read-out: Protective value
Botrytis cinerea = test: Test 9: protective value on cucumber inoculated with Botrytis cinerea; type: in vivo, Botrytis cinerea (cucumber plant, Suyo); conditions: 72 h; for pest or weed control at 250 ppm: 10 ml sprayed, lesion length three days after inoculation
Procedure, shortened: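 Cucumber at one-leaf stage sprayed with active ingredient at 250 ppm, kept in a greenhouse at 24–25 °C for one day, then inoculated with a PDA-grown Botrytis cinerea agar disc. Lesion length measured 3 days after inoculation and converted to protective value; some comparisons used lower concentrations.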

Rhizoctonia solani = test: whole plant or invertebrate; type: in vivo, Rhizoctonia solani (rice plant, Chukyo Asahi); conditions: in Oryza sativa, 120 h, read-out: Preventive value
Escherichia coli = test: Test 8: MIC by agar dilution process; type: cell-based; conditions: Bouillon agar medium, 24 hours
Experimental: (§2) Each minimum growth inhibition concentration (MIC) of Compound No. 16 to various microorganisms was measured by the agar dilution process. In the cases of bacteria, the results were observed 24 hours after the inoculation and in the cases of fungi, the results were observed 1 week after the inoculation.

[2] = test system: Aureobasidium pullulans IFO 6353; test: Test 8: MIC by agar dilution process; type: cell-based; conditions: IFO6353, 168 h, Sabouraud's agar medium, 1 week
Experimental: as §2

Pseudomonas aeruginosa = test: Test 8: MIC by agar dilution process; type: cell-based; conditions: Bouillon agar medium, 24 hours
Experimental: as §2

[3] = test system: Penicillium chrysogeum IFO 4626; test: Test 8: MIC by agar dilution process; type: cell-based; conditions: IFO4626, 168 h, Sabouraud's agar medium, 1 week
Experimental: as §2

Trametes sanguinea = test: Test 8: MIC by agar dilution process; type: cell-based; conditions: 168 h, Sabouraud's agar medium, 1 week
Experimental: as §2

[4] = test system: Klebsiella pneumoniae IFO 3512; test: Test 8: MIC by agar dilution process; type: cell-based; conditions: IFO3512, Bouillon agar medium, 24 hours
Experimental: as §2

[5] = test system: Serratia marcescens IFO 12648; test: Test 8: MIC by agar dilution process; type: cell-based; conditions: IFO12648, Bouillon agar medium, 24 hours
Experimental: as §2

[6] = test system: Aspergillum fumigatus IFO 4057; test: Test 8: MIC by agar dilution process; type: cell-based; conditions: 168 h; Sabouraud's agar medium; 1 week
Experimental: as §2

[7] = test system: Aspergillum niger IFO 6341; test: Test 8: MIC by agar dilution process; type: cell-based; conditions: 168 h; Sabouraud's agar medium; 1 week
Experimental: as §2

[8] = test system: Myrothecium verrucaria IFO 6133; test: Test 8: MIC by agar dilution process; type: cell-based; conditions: Albifimbria verrucaria, IFO6133, 168 h; Sabouraud's agar medium; 1 week
Experimental: as §2

[9] = test system: Salmonella typhimurium IFO 12529; test: Test 8: MIC by agar dilution process; type: cell-based; conditions: Salmonella enterica; Bouillon agar medium; 24 hours
Experimental: as §2

[10] = test system: Proteus morganii IFO 3848; test: Test 8: MIC by agar dilution process; type: cell-based; conditions: Morganella morganii, IFO3848; Bouillon agar medium; 24 hours
Experimental: as §2

[11] = test system: Gibberella fujikuroi IFO 6349; test: Test 8: MIC by agar dilution process; type: cell-based; conditions: Fusarium fujikuroi, IFO6349, 168 h; Sabouraud's agar medium; 1 week
Experimental: as §2

[12] = test system: Penicillium funiculosum IFO 6354; test: Test 8: MIC by agar dilution process; type: cell-based; conditions: Talaromyces funiculosus, IFO6354, 168 h; Sabouraud's agar medium; 1 week
Experimental: as §2

[13] = test system: Penicillium citrium IFO 6352; test: Test 8: MIC by agar dilution process; type: cell-based; conditions: IFO6352, 168 h, Sabouraud's agar medium, 1 week
Experimental: as §2

[14] = test system: Gliocladium virens IFO 9166; test: Test 8: MIC by agar dilution process; type: cell-based; conditions: Trichoderma virens, IFO9166, 168 h; Sabouraud's agar medium; 1 week
Experimental: as §2

[15] = test system: Staphylococcus aureus 209P; test: Test 8: MIC by agar dilution process; type: cell-based; conditions: Bouillon agar medium, 24 hours
Experimental: as §2

[16] = test system: Chaetomium globosum IFO 6347; test: Test 8: MIC by agar dilution process; type: cell-based; conditions: IFO6347, 168 h, Sabouraud's agar medium, 1 week
Experimental: as §2

[17] = test system: Aspergillum flavus IFO 6343; test: Test 8: MIC by agar dilution process; type: cell-based; conditions: 168 h; Sabouraud's agar medium; 1 week
Experimental: as §2

Penicillium italicum = test: Test 8: MIC by agar dilution process; type: cell-based; conditions: 168 h, Sabouraud's agar medium, 1 week
Experimental: as §2

Bacillus subtilis PC1219 = test: Test 8: MIC by agar dilution process; type: cell-based; conditions: Bouillon agar medium, 24 hours
Experimental: as §2

For O=[N+]([O-])c1cc(C(F)(F)F)c(Cl)c([N+](=O)[O-])c1Nc1ncc(C(F)(F)F)cc1Cl [Compound No. 7, N-(3-chloro-5-trifluoromethyl-2-pyridyl)-2,6-dinitro-3-chloro-4-trifluoromethylaniline], the “minimum growth inhibition concentration” value (Phytophthora infestans) was 100, the mortality at 800 ppm (Plutella xylostella) was 100% and the “minimum growth inhibition concentration” value (Diaporthe citri) was under 1. For the same compound, the “minimum growth inhibition concentration” value (Alternaria solani) was under 1, the “minimum growth inhibition concentration” value (Venturia inaequalie) was under 1 and the Protective value [1] was 100%. It also gave a pest or weed control at 12.5 ppm (Pyricularia orzae) of 98%, a pest or weed control at 25 ppm (Pyricularia orzae) of 100% and a pest or weed control at 100 ppm (Pyricularia orzae) of 100%. The pest or weed control at 500 ppm (Sphaerotheca fuliginea) was 100%, the pest or weed control at 500 ppm (Plasmopara viticola) was 100% and the pest or weed control at 62.5 ppm (Botrytis cinerea; 62.5 ppm) was 100%. It also gave a pest or weed control at 250 ppm (Botrytis cinerea) of 100% and a pest or weed control at 100 ppm (Rhizoctonia solani) of 100%.

O=[N+]([O-])c1cc(C(F)(F)F)c(Cl)c([N+](=O)[O-])c1Nc1c(Cl)cncc1Cl [Compound No. 16] showed a pest or weed control at 100 ppm (Pyricularia orzae) of 100%, a pest or weed control at 500 ppm (Sphaerotheca fuliginea) of 100% and an MIC (Escherichia coli) of 12.5 µg/mL (≈ 29 µM). It also gave an MIC [2] of 6.25 µg/mL (≈ 14.5 µM), an MIC (Pseudomonas aeruginosa) of 12.5 µg/mL (≈ 29 µM) and an MIC [3] of 3.12 µg/mL (≈ 7.23 µM). The MIC (Trametes sanguinea) was 6.25 µg/mL (≈ 14.5 µM), the MIC [4] was 12.5 µg/mL (≈ 29 µM) and the MIC [5] was 6.25 µg/mL (≈ 14.5 µM). For the same compound, the MIC [6] was 6.25 µg/mL (≈ 14.5 µM), the MIC [7] was 3.12 µg/mL (≈ 7.23 µM) and the MIC [8] was 6.25 µg/mL (≈ 14.5 µM). For the same compound, the MIC [9] was 6.25 µg/mL (≈ 14.5 µM), the MIC [10] was 6.25 µg/mL (≈ 14.5 µM) and the MIC [11] was 12.5 µg/mL (≈ 29 µM). For the same compound, the MIC [12] was 6.25 µg/mL (≈ 14.5 µM), the MIC [13] was 6.25 µg/mL (≈ 14.5 µM) and the MIC [14] was 12.5 µg/mL (≈ 29 µM). It also gave an MIC [15] of under 0.2 µg/mL, an MIC [16] of 3.12 µg/mL (≈ 7.23 µM) and an MIC [17] of 6.25 µg/mL (≈ 14.5 µM). The MIC (Penicillium italicum) was 3.12 µg/mL (≈ 7.23 µM), the MIC (Bacillus subtilis PC1219) was under 0.2 µg/mL and the pest or weed control at 250 ppm (Botrytis cinerea) was 100%. The pest or weed control at 100 ppm (Rhizoctonia solani) was 100%.
